Literature values in patent publication US20100254946A1, “MAINTENANCE OF HAIR GROWTH AND TREATMENT OF HAIR-LOSS” (LIFE & BRAIN GMBH, priority 2007, published 2010).
“Also recorded” adds a separate entry of the source.

Experiments:
hair growth = conditions: mouse model, previously shown
P2Y5 receptor = biological target: T1, P2Y5 receptor (Homo sapiens, UniProt P43657)
T1 sequence (P43657 1-344): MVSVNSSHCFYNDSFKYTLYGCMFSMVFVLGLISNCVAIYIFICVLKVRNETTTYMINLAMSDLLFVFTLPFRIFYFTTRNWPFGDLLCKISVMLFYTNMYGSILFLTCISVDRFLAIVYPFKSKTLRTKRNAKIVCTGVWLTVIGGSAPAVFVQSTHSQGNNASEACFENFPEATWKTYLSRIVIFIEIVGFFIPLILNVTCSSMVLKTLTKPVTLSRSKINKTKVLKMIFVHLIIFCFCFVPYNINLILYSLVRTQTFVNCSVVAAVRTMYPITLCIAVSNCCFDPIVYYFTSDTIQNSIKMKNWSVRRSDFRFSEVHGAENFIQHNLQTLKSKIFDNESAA

[1] = biological target: T2, P2Y5 mutant p.Lys125AsnfsX37 (Homo sapiens, UniProt P43657); conditions: P2Y5 mutant p.Lys125AsnfsX37, LPA used as ligand
T2 construct: premature termination of translation of the P2Y5 receptor protein (p.Lys125AsnfsX37; expressed in transfected cells; vector pcDNA5/FRT/V5-His), transiently transfected with pCRE-luc
T2 sequence (P43657 with tags, fused parts or gaps): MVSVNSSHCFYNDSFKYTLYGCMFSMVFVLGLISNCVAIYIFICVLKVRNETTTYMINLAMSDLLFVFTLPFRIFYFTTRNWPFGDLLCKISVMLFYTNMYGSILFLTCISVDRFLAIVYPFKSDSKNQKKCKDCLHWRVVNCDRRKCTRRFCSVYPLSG

SMILES: CCCCCCCC/C=C\CCCCCCCC(=O)OC[C@@H](O)COP(=O)(O)O [LPA, oleoyl-L-alpha-lysophosphatidic acid]
- stimulation of hair growth (hair growth): stimulate hair growth in vivo
- ligand for the P2Y5 receptor (P2Y5 receptor): is a ligand of the P2Y5 receptor; also recorded: is a ligand for the P2Y5 receptor
- activation of a CRE luciferase reporter gene [1]: not capable of activating a CRE luciferase reporter gene
